Legend:
[1] = target: T1, CCR5 (Homo sapiens (Human), UniProt P51681); experiment: Calcium mobilization assay in MOLT-4/CCR5 cells, RANTES-stimulated (Example 1); format: cell-based; conditions: CCR5/MOLT-4 cells
Description: The ligands were first tested with various doses (in the range of 0.1 nM to 1 μM) for possible agonist activity. The protocol was the same for the following antagonism study, except no CCL5 (RANTES) was added. MOLT-4/CCR5 cells were plated in black 96-well plates with transparent bottom (Greinier Bio-one) at 100,000 cells per well in 50:1 HBSS:HEPES assay buffer. They were incubated for 1 hour at 37° C. and 5% CO2 with control buffer or varying concentration of ligand for a total volume of 130 μL per well. Cells were then incubated with 50 μL of Fluo-4-AM loading buffer (40 μL 2 μM Fluo-4 dye, 100 μL 2.5 mM probenacid, in 5 mL assay buffer) for an additional hour. Then 20μL 200 nM RANTES solution in assay buffer or assay buffer alone were added to the wells right before changes in Ca^2+ concentration were monitored by RFU for 90 seconds using a microplate reader (FlexStation3, Molecular Devices). Peak values were obtained using SoftMaxPro software (Molecular Devices) and non-linear regression curves were generated using Prism (GraphPad) to calculate IC50 values.

[2] = tested on: RANTES; experiment: Chemokine release ELISA, HIV-1 infected astroglia supernatant: RANTES; format: cell-based, human; conditions: 18-20 h; bivalent ligand ± morphine
Description: (§1) The protein levels of the cytokines TNF-α, IL-6, IL-1β and the chemokine RANTES were measured by ELISA (Quantikine kits; R&D Systems Minneapolis, Minn.).
(§2) After 18-20 h exposure, supernatant was removed and analyzed by ELISA to quantitatively analyze the release of the cytokines TNF-α, IL-1β and IL-6 and the chemokine RANTES.

[3] = target: T1, CCR5; experiment: Calcium mobilization assay, CCR5-MOR CHO co-expressed cell line (Gqi5), RANTES-stimulated; format: cell-based; conditions: cells stimulated with RANTES
Description: (§3) Having a cell line that consistently expresses both CCR5 and MOR was essential for studying how the two receptors interact with each other using calcium mobilization assays and cell fusion assays. A previously established MOR Chinese hamster ovarian (CHO) cell line was transfected with a plasmid containing CCR5 tagged with a yellow fluorescent protein on its N-terminus (CCR5-YFP). ^1 After 48 hours cells were sorted based upon the presence of the yellow fluorescent protein tag using a flow cytometer. Cells containing the tagged receptors were then cultured and used in the subsequent assays.
(§4) Calcium mobilization is directly related to G protein-coupled receptor (GPCR) activation and therefore is a useful technique to study the functional activity of new ligands.

[4] = target: T2, MOR (Homo sapiens (Human), UniProt P35372); experiment: Calcium mobilization assay, CCR5-MOR CHO co-expressed cell line (Gqi5), DAMGO-stimulated; format: cell-based
Description: as §3, §4

[5] = tested on: R5-tropic HIV-1SF162 in primary human astrocytes; experiment: HIV-1SF162 infectivity, Tat luciferase reporter assay in primary human astrocytes; format: cell-based
Description: Primary human astrocytes (ScienCell catalog #1901) were cultured in 24-well plates and transfected with the plasmid pBlue3′LTR-luc (NIH AIDS Research and Reference Reagent Program) using Lipofectamine 2000 (Invitrogen) followed by infection with HIV-1. After 18-20 h cells were rinsed twice in 1×PBS then lysed in Cell Culture Lysis Reagent (Promega) and relative Tat protein expression was determined by measuring luciferase activity using the Luciferase Assay System (Promega; catalog # E1500). Light units were measured using a PHERAstar FS plate reader (BMG Labtech).
Primary human astroglial cells were infected by incubation with the neurotropic HIV-1 strain SF162. A concentration of HIV-1 p24 50 pg/10^6 cells was used, and a no virus condition served as a negative control. Viral stocks were quantified by assaying for HIV-1 p24 (Alliance p24 Antigen ELISA Kit; Advanced Bioscience, Kensington, Md.).
HIV-1SF162 infectivity of human astroglia was determined based on the relative amount of Tat protein expressed by the virus using a luciferase-based reporter assay. Reporters under the control of the long terminal repeat (LTR) viral promoter are a robust means of measuring HIV-1 infection, since the LTR is activated by HIV-1 Tat, which is only expressed by infected cells.
As the bivalent ligand 1 has been designed as a molecular probe to study the underlying mechanisms of opioid-enhanced NeuroAIDS by targeting the MOR-CCR5 heterodimerization, a luciferase-based HIV-1SF162) infection assay measuring the relative transactivator of transcription (Tat) protein expression in human astrocytes was performed (FIG. 15). Tat is encoded by HIV-1 and is the first protein to be produced after HIV-1 infection. Thus, Tat expression level is directly proportioned to the extent of HIV-1 invasion. Astrocytes were chosen based on the following facts: first, astrocytes express both the MOR and the CCR5. Second, the human blood-brain barrier (BBB) is composed of interacting adjacent cerebral endothelial cells (CECs) and astrocytes, which makes astrocytes a readily accessible target during the course of HIV infection. Thirdly, during NeuroAIDS development astroglia are important cellular sites within the CNS where opioids synergistically potentiate the pathophysiological effects of HIV-1 infection.

[6] = target: T2, MOR; experiment: DAMGO-stimulated Ca2+ flux assay in hMOR-CHO cells transfected with Gqi5; format: cell-based
[7] = tested on: IL-6; experiment: Cytokine release ELISA, HIV-1 infected astroglia supernatant: IL-6; format: cell-based, human; conditions: 18-20 h; bivalent ligand ± morphine
Description: as §1, §2

[8] = target: T1, CCR5; experiment: RANTES-stimulated Ca2+ flux assay in Gqi5 transfected CCR5-MOLT-4 cells (Example 4); format: cell-based
[9] = tested on: TNF-α; experiment: Cytokine release ELISA, HIV-1 infected astroglia supernatant: TNF-α; format: cell-based, human; conditions: 18-20 h; bivalent ligand ± morphine
Description: as §1, §2

[10] = tested on: R5-tropic HIV-1Bal Vpr-GFP in primary astroglial cells; experiment: Confocal microscopy of HIV-1Bal Vpr-GFP entry into astroglial cells; format: cell-based; conditions: 100 nM, 18 to 20 h
Description: For direct visualization of viral entry, fluorescent HIV-1 particles were generated by co-transfection of a vector containing a full-length R5-tropic HIV-1 provirus (NIH AIDS Research & Reference Reagent Program, Division of AIDS, NIAID, NIH: pWT/BaL (catalog #11414) and Vpr-GFP into HEK-293T cells as described in [9]. Primary astroglial cells were infected with the HIV-1 Vpr-GFP particles in the absence or presence of 100 nM bivalent ligand for 18 to 20 h at 37° C., washed in PBS, fixed with 4% paraformaldehyde, and counterstained with DAPI. Cells were imaged using a Zeiss LSM 700 laser scanning confocal microscope equipped with a 63×(1.42 numerical aperture [NA]) objective, using 488-nm laser excitation with dichroic beam-splitter set at 492 nm to optimize GFP detection.

T1 sequence (P51681 whole entry): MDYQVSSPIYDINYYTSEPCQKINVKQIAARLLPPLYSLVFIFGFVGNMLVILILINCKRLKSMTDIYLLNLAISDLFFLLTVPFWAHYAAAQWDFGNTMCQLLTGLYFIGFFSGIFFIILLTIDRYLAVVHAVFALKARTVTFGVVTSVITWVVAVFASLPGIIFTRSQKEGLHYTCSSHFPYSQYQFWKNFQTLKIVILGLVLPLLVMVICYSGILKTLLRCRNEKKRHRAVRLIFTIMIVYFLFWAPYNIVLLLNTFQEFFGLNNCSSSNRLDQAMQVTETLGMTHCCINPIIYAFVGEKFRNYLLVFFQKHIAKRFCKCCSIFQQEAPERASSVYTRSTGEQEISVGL

Cc1nnc(C(C)C)n1C1CC2CCC(C1)N2CC[C@H](NC(=O)C1CCC(F)(F)CC1)c1ccc(NC(=O)COCC(=O)NCCCCCCCNC(=O)COCC(=O)N[C@@H]2CC[C@@]3(O)[C@H]4Cc5ccc(O)c6c5[C@@]3(CCN4CC3CC3)[C@H]2O6)cc1 (some centres unmarked) [bivalent ligand 1]
IC50 ([1]; RANTES, read-out: calcium flux inhibition IC50): 231 ± 88 nM
agonism in calcium mobilization assay ([1]; no RANTES added): no agonism
fold decrease in RANTES release compared to R5 HIV-1 alone [2]: 1.5 fold
IC50 [3]: 6.24 ± 0.251 µM
IC50 [4]: 30 ± 2.44 nM
potency in HIV-1 entry inhibition relative to the mixture of maraviroc and naltrexone [5]: two times
decrease in Tat expression compared to maraviroc alone or the combination of maraviroc and naltrexone ([5]; 100 nM): two-fold
fold decrease in Tat expression compared to MVC with NTX plus morphine, bivalent compound plus morphine ([5]; 100 nM + morphine 500 nM): 4.4 fold
fold decrease in Tat expression compared to R5 plus MVC, bivalent compound plus morphine ([5]; 100 nM + morphine 500 nM): 2.9 fold
fold decrease in Tat expression compared to R5 HIV-1 alone ([5]; 100 nM, 18-20 h post-infection, no morphine): 4.4 fold
fold decrease in virus entry compared to maraviroc with morphine ([5]; 100 nM, morphine 500 nM, Example 3): 7 fold
fold decrease in virus entry compared to maraviroc alone ([5]; 100 nM, without morphine, Example 3): 3.3 fold
fold decrease in Tat expression compared to R5 plus MVC ([5]; bivalent ligand 100 nM, no morphine): 2.0 fold
effect of morphine stimulation on potency ([5]; morphine 500 nM): no effect
fold reduction of potency to antagonize DAMGO-induced Ca2+ flux compared to naltrexone [6]: less than 5 fold
IC50 ([6]; DAMGO stimulated, hMOR-CHO Gqi5, read-out: Ca2+ inhibition IC50 ± SEM): 40 ± 4.8 nM
agonism in Ca2+ mobilization assay ([6]; hMOR-CHO Gqi5, data not shown): No agonism
fold decrease in IL-6 release compared to R5 HIV-1 alone [7]: 1.6 fold
fold less potent than maraviroc in RANTES induced Ca2+ flux inhibition [8]: approximately 60 fold
IC50 ([8]; RANTES stimulated, read-out: Ca2+ inhibition IC50 ± SEM): 126 ± 28 nM
CCR5 agonism ([8]; data not shown): no CCR5 agonism
fold decrease in TNF-α release compared to R5 HIV-1 alone [9]: 2.0 fold
viral entry by confocal microscopy [10]: abolished viral entry

Reference: patent US9107954B2, “Bivalent ligands for the treatment of neurological disorders” (Virginia Commonwealth University, priority 2012, dated 2015)
